Results: US8232269B2, “Amide compounds useful in therapy” (Pfizer Inc., priority 2008, dated 2012)

Biological target: T1, Progesterone Receptor (PR) (Homo sapiens, UniProt P06401)
T1 construct: endogenous in cells; host or cells: T47D human breast mammary carcinoma cells
T1 sequence (P06401 1-933): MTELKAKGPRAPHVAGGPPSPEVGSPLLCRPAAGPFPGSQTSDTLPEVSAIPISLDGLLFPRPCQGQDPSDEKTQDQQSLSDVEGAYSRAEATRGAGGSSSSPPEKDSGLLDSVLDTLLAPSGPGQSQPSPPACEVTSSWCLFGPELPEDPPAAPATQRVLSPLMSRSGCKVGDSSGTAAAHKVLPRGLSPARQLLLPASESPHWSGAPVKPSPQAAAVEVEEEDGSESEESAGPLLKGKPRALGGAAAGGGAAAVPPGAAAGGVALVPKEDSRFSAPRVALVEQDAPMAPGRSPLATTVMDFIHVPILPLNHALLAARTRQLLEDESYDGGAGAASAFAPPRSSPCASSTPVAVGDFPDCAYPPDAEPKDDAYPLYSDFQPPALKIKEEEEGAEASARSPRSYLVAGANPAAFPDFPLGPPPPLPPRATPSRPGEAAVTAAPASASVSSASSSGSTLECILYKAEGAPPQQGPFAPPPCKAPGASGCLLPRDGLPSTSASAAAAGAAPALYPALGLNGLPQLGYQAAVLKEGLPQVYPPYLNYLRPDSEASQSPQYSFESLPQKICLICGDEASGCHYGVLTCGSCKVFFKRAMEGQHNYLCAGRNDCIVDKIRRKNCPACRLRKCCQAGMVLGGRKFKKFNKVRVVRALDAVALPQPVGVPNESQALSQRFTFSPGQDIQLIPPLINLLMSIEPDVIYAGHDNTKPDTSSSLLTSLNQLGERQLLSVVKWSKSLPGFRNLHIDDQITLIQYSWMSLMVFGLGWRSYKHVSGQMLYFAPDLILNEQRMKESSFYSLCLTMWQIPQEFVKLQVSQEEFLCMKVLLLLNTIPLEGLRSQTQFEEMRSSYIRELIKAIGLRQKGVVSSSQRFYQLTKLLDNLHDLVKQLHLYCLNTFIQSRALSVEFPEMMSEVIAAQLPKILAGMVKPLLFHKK
Experiment: In vitro functional assay for progesterone receptor (PR) antagonists: inhibition of progesterone-induced alkaline phosphatase expression in T47D cells
Type: cell-based
Conditions: antagonist format, 5 nM progesterone, Ki calculated from IC50 with the Cheng-Prusoff equation
In short: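 Antagonist format: T47D cells (8750/well, phenol red-free DMEM + 5% CS-FCS) given half-log compound dilutions plus 5 nM progesterone (final), incubated overnight (≥16 h) at 37 °C. Alkaline phosphatase read by CSPD chemiluminescence after freeze-thaw lysis; 0.1 μM RU-486 final defines minimum.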

Row | Ki [nM] | Structure (SMILES)
1 | 3.56 | Cc1cc(-c2nn(C(C)C)c(C(=O)NC(C)C)c2C)ccc1C#N [Example 66, 3-(4-Cyano-3-methylphenyl)-N,1-diisopropyl-4-methyl-1H-pyrazole-5-carboxamide]
2 | 18.5 | Cc1c(-c2ccc(C#N)cc2)nn(C2CCC2)c1C(=O)NCC(C)(C)O [Example 74, 3-(4-Cyanophenyl)-1-cyclobutyl-N-(2-hydroxy-2-methylpropyl)-4-methyl-1H-pyrazole-5-carboxamide]
3 | 7.75 | CCNC(=O)c1c(C#N)c(-c2ccc(C#N)cc2)nn1C(C)C [Example 89, 4-Cyano-3-(4-cyanophenyl)-N-ethyl-1-isopropyl-1H-pyrazole-5-carboxamide]
4 | 7.11 | CC[C@H](C)NC(=O)c1c(C2CC2)c(-c2ccc(C#N)cc2)nn1C(C)C [Example 33, 3-(4-Cyanophenyl)-4-cyclopropyl-1-isopropyl-N-[(1S)-1-methylpropyl]-1H-pyrazole-5-carboxamide]
5 | 26 | CCc1c(-c2ccc(C#N)cc2)nn(C(C)C)c1C(=O)NC [Example 112, 3-(4-Cyanophenyl)-4-ethyl-1-isopropyl-N-methyl-1H-pyrazole-5-carboxamide]
6 | 17.8 | CC(NC(=O)c1c(C2CC2)c(-c2ccc(C#N)cc2)nn1C(C)C)c1cnn(C)c1 (racemic) [Example 39]
7 | > 733 | Cc1c(-c2ccc(C#N)cc2)nn(C2CCOC2)c1C(=O)NCC(C)(C)O (single isomer, unassigned) [Example 80 Ent 2, 3-(4-Cyanophenyl)-N-(2-hydroxy-2-methylpropyl)-4-methyl-1-(tetrahydrofuran-3-yl)-1H-pyrazole-5-carboxamide]
8 | 8.84 | CNC(=O)c1c(C#N)c(-c2ccc(C#N)cc2)nn1C(C)C [Example 92, 4-Cyano-3-(4-cyanophenyl)-1-isopropyl-N-methyl-1H-pyrazole-5-carboxamide]
9 | 7.06 | CC(C)NC(=O)c1c(C2CC2)c(-c2ccc(C#N)cc2)nn1C(C)C [Example 4, 3-(4-Cyano-phenyl)-4-cyclopropyl-N,1-diisopropyl-1H-pyrazole-5-carboxamide]
10 | 161 | COC(=O)C(C)(C)NC(=O)c1c(C2CC2)c(-c2ccc(C#N)cc2)nn1C(C)C [Example 27]
11 | 5.18 | CNC(=O)c1c(C#N)c(-c2ccc(C#N)c(C)c2)nn1C(C)C [Example 122]
12 | 3.09 | Cc1cc(-c2nn(C(C)C)c(C(=O)NCC3CC3)c2C)ccc1C#N [Example 62, 3-(4-Cyano-3-methylphenyl)-N-(cyclopropylmethyl)-1-isopropyl-4-methyl-1H-pyrazole-5-carboxamide]
13 | 6.87 | CC(C)n1nc(-c2ccc(C#N)cc2)c(C2CC2)c1C(=O)NC1CC1 [Example 58, 3-(4-Cyanophenyl)-N,4-dicyclopropyl-1-isopropyl-1H-pyrazole-5-carboxamide]
14 | 163 | Cc1c(-c2ccc(C#N)cc2)nn(C2CCOC2)c1C(=O)NC[C@@H](C)O (single isomer, unassigned) [Example 79 Diast 2]
15 | 102 | Cc1c(-c2ccc(C#N)cc2)nn(C2CCOC2)c1C(=O)NC(C)C (single isomer, unassigned) [Example 77 Ent 2, 3-(4-Cyanophenyl)-N-isopropyl-4-methyl-1-(tetrahydrofuran-3-yl)-1H-pyrazole-5-carboxamide]
16 | 30.9 | CCc1c(-c2ccc(C#N)cc2)nn(C(C)C)c1C(=O)NC[C@H](C)O [Example 114, 3-(4-Cyanophenyl)-4-ethyl-N-[(2S)-2-hydroxypropyl]-1-isopropyl-1H-pyrazole-5-carboxamide]
17 | 4.65 | CC(C)n1nc(-c2ccc(C#N)cc2)c(C2CC2)c1C(=O)N(C)CC1CC1 [Example 51, 3-(4-Cyanophenyl)-4-cyclopropyl-N-(cyclopropylmethyl)-1-isopropyl-N-methyl-1H-pyrazole-5-carboxamide]

System: Brca1/p53-deficient mice
Experiment: not given
Conditions: treatment of Brca1/p53-deficient mice; cited from earlier work

Row | Structure (SMILES) | effect on mammary tumorigenesis
18 | CC#C[C@]1(O)CC[C@H]2[C@@H]3CCC4=CC(=O)CCC4=C3[C@@H](c3ccc(N(C)C)cc3)C[C@@]21C [RU486, mifepristone] | prevented mammary tumorigenesis

System: ovarian cancer patients
Experiment: not given
Conditions: RU486 200 mg/day; ovarian cancer patients refractory to cisplatin and paclitaxel; cited from earlier work

Row | Structure (SMILES) | patients with a clinical response [%]
19 | CC#C[C@]1(O)CC[C@H]2[C@@H]3CCC4=CC(=O)CCC4=C3[C@@H](c3ccc(N(C)C)cc3)C[C@@]21C [RU486, mifepristone] | 26.5
